Series [1] has as its system E. coli A9675. Kind of series: Therapeutic efficacy of BL-P2043, BL-P2044 and components, oral, infected mice (Table 13). The format is in vivo. The note with it: Escherichia coli, po; E. coli A9675, p.o.; pro-drugs and mixtures 50:38; read-out: PD50/Treatment.
The test system of series [2] is B. thetaiotaomicron. Kind of series: Anti-Bacteroides activity, MIC by agar dilution (Table 2). The format is cell-based. The note with it: A22279, beta-lactamase +. As for the experimental part: *Minimum inhibitory concentration (MIC) determined by the agar dilution
method using 50X dilutions of 24 hour cultures as inocula dispensed by th
Steer's inoculator. Assay medium composed of Brucella Agar plus 5% laked
sheep blood and 10 mcg/ml vitamin K.
A general note: In agar dilution the substance is mixed into plates at graded concentrations.

Series [3] concerns Bacteroides species. Described as above. In kind it is cell-based.
Series [4] can be described thus: in vivo. The note with it: mouse, po, 50 mg/kg; for concentration at 0.5 h / concentration at 1 h / concentration at 2 h: Blood Level.
The nature of series [5]: in vivo. The note with it: mouse, po. The text has this:
Compounds were solubilized in propylene glycol, except for the Hetacillin

The conditions of series [6]: mouse, in vivo, po, 50 mg/kg.
The nature of series [7]: Blood levels and half-life of BL-P2024 after oral administration to mice (Table 5). In kind it is in vivo. Particulars: 100 mg/kg oral.
The subject of series [8] is S. aureus. The series is described as follows: Therapeutic efficacy as mutual pro-drugs or mixtures, oral, infected mice (Table 12). In kind it is in vivo. Particulars: Staphylococcus aureus, pro-drugs and their mixtures 50:38, read-out: PD50/Treatment. The protocol: (§1) ^a Treatment schedule: Mice were infected i.p. with about 5 ×
(§2) 10^6 organisms of E. coli in 4% mucin and 1 × 10^9 of S.
(§3) aureus in 2% mucin. Drugs were administered p.o. at 0 and 2 hour
(§4) ^b Mutual ProDrugs: BLP2048 (hetacillin: BLP2013) and BLP2049
(§5) (hetaamoxicillin: BLP2013) as well as their respective mixtures were
(§6) administered in a 50:38 ratio. PD50 values are averages of 2 to 3
(§7) tests for E. coli and 1 to 2 tests for S. aureus.
(§8) averages of 1 to 2 tests for E. coli and a single test for S. aureus.

Series [9] deals with E. coli. Described as above. Particulars: Escherichia coli, pro-drugs and their mixtures 50:38, read-out: PD50/Treatment. The format is in vivo. As for the experimental part: as §1, §2, §3, §4, §5, §6, §7, §8
Series [10] deals with β-lactamase-producing strains. The note with it: in vitro and in vivo; cited from earlier work.
Series [11] has as its system S. marcescens. The series is described as follows: Antibacterial activity of ceforanide alone and with BL-P2013, MIC (Table 11). In kind it is cell-based. The text has this:
(§9) ^a Geometric mean value where applicable.

Series [12] has as its system P. vulgaris. The description is as above. The format is cell-based. Particulars: Proteus vulgaris.
Text: as §9

For series [13], the system named is E. aerogenes. Described as above. The format is cell-based.
Text: as §9

Series [14] concerns P. rettgeri. The description is as above. The format is cell-based. The note with it: Providencia rettgeri.
Text: as §9

For series [15], the system named is M. morganii. Described as above. Particulars: Morganella morganii, geometric mean. In kind it is cell-based.
Text: as §9

Series [16] deals with Citrobacter sp. The description is as above. In kind it is cell-based.
Text: as §9

In series [17] the test system is S. faecalis. Described as above. In kind it is cell-based. The note with it: Enterococcus faecalis.
Text: as §9

Series [18] has as its system P. mirabilis. The series is described as above. The format is cell-based. The note with it: Proteus mirabilis.
Text: as §9

Series [19] has as its system P. aeruginosa. The description is as above. The format is cell-based. The note with it: Pseudomonas aeruginosa.
Text: as §9

Series [20] has as its system C. freundii. The series is described as above. The note with it: Citrobacter freundii. The format is cell-based.
Text: as §9

In series [21] the test system is P. stuartii. The series is described as above. Particulars: Providencia stuartii. The format is cell-based.
Text: as §9

The subject of series [22] is E. cloacae. The series is described as above. In kind it is cell-based. Particulars: Enterobacter cloacae.
Text: as §9

For series [23] the following is noted: man, oral; cited from earlier work.

Converted amounts (≈) assume the structure as drawn. Counter-ions that a name gives are not always drawn. Like-named read-outs stand apart in the source and are kept apart here. Bounds are passed on as bounds.

As to `CC1(C)SC2C(NC(=O)C(N)c3ccc(O)cc3)C(=O)N2C1C(=O)OCOC(=O)C1N2C(=O)CC2S(=O)(=O)C1(C)CCl` (single isomer, unassigned) [BL-P2044, Hydrochloride], the ED50 in [1] came to 25 mg/kg.
Usually MIC stands for the lowest concentration found to suppress growth. Broadly, the AUC is concentration integrated over time. As for `CC1(C)S[C@@H]2[C@H](NC(=O)[C@H](N)c3ccc(O)cc3)C(=O)N2[C@H]1C(=O)O` [Amoxicillin, reference compound], the MIC was 16 µg/mL in [2]; 16 µg/mL in [3] (A20929, beta-lactamase +); 16 µg/mL in series [3] (A20931, beta-lactamase +); 16 µg/mL in [3] (A21954, beta-lactamase +). Moreover, the values for the AUC in [4] and in [5] (50 mg/kg) were 15400 ng·h/mL and 9500 ng·h/mL, respectively. In addition, the concentration at 0.5 h turned out to be 11000 ng/mL in [4] and 7000 ng/mL in [5] (50 mg/kg). For the same compound, the concentration at 1 h in series [4] was 9000 ng/mL; in series [5] (50 mg/kg), 5000 ng/mL. Moreover, the concentration at 2 h in series [4] worked out at 3100 ng/mL; in series [5] (50 mg/kg), 2200 ng/mL. For the same compound, the results for the “Blood Level” value in series [6] (0.5 h), in series [6] (1 h) and in series [6] (2 h) were 7000 ng/mL, 5000 ng/mL and 2200 ng/mL, respectively.
Regarding `CC1(C)S[C@@H]2[C@H](NC(=O)[C@H](N)c3ccccc3)C(=O)N2[C@H]1C(=O)O` [Ampicillin, reference compound], the ED50 in [1] is > 400 mg/kg. In [4], this compound yielded an area under the curve (AUC) of 6200 ng·h/mL, a concentration at 0.5 h of 4000 ng/mL, a concentration at 1 h of 3300 ng/mL and a concentration at 2 h of 1700 ng/mL. In series [5] (50 mg/kg), the AUC is 6200 ng·h/mL, the concentration at 0.5 h was determined as 4000 ng/mL, the concentration at 1 h was 3300 ng/mL and the concentration at 2 h was 1700 ng/mL. The “Blood Level” value in series [6] (0.5 h) came to 3200 ng/mL. Further, the “Blood Level” value in [6] (1 h) came to 2600 ng/mL.
As to `CC(C)(C)C(=O)OCOC(=O)C1N2C(=O)CC2S(=O)(=O)C1(C)CCl` (stereo not drawn) [BL-P2024, Pivaloyloxymethyl 2β-Chloromethyl-2α-methylpenam-3α-carboxylate Sulfone], the “Blood Level” value came to 12300 ng/mL in series [7] (15 min), 12200 ng/mL in series [7] (30 min), 9400 ng/mL in series [7] (60 min) and 5700 ng/mL in series [7] (120 min).
As for `CC1(C)SC2C(NC(=O)C(N)c3ccccc3)C(=O)N2C1C(=O)OCOC(=O)C1N2C(=O)CC2S(=O)(=O)C1(C)CCl` [BL-P2043, 6-[(R)-2-Amino-2-phenylacetamido]-3,3-dimethyl-7-oxo-4-thia-1-azabicyclo[3.2.0]heptane-2-carbonyloxymethyl 2β-chloromethyl-2-α-methylpenam-3α-carboxylate sulfone], the ED50 in series [1] was found to be 44 mg/kg.
As to `CC1(C)SC2C(N3C(=O)C(c4ccccc4)NC3(C)C)C(=O)N2C1C(=O)OCOC(=O)C1N2C(=O)CC2S(=O)(=O)C1(C)CCl` [BL-P2048, 2β-Chloromethyl-2α-methyl-1,1-dioxopenam-3-carbonyloxymethyl 6-(D-2,2-dimethyl-5-oxo-4-phenyl-1-imidazolidinyl)penicillanate Hydrochloride], the ED50 in [8] (S. aureus A20379, p.o.) is 400 mg/kg; in [8] (S. aureus A-9606, p.o.), 274 mg/kg; in [9] (E. coli A20649, p.o.), 89 mg/kg; in series [9] (E. coli A21223, p.o.) it was 32 mg/kg; in series [9] (E. coli A-9675, p.o.), 49 mg/kg. Moreover, the “Blood Level” value in [5] (38 mg/kg, 15 min) was found to be 10000 ng/mL; in series [5] (38 mg/kg, 120 min), 900 ng/mL; in [5] (38 mg/kg, 150 min) it was 600 ng/mL; in series [5] (50 mg/kg, 15 min) it was 8000 ng/mL.
Turning to `CC1(C)SC2C(N3C(=O)C(c4ccc(O)cc4)NC3(C)C)C(=O)N2C1C(=O)OCOC(=O)C1N2C(=O)CC2S(=O)(=O)C1(C)CCl` [BL-P2049, 2β-Chloromethyl-2α-methyl-1,1-dioxopenam-3-carbonyloxymethyl 6-[D-2,2-dimethyl-5-oxo-4-(4-hydroxyphenyl)-1-imidazolidinyl]-penicillanate Hydrochloride], the ED50 in series [8] (S. aureus A20379, p.o.) was > 400 mg/kg; in series [8] (S. aureus A-9606, p.o.) it was > 374 mg/kg; in series [9] (E. coli A20649, p.o.), 43 mg/kg; in series [9] (E. coli A21223, p.o.), 32 mg/kg; in series [9] (E. coli A-9675, p.o.), 28 mg/kg. For the same compound, the “Blood Level” value stood at 4100 ng/mL in series [5] (38 mg/kg, 15 min); 4600 ng/mL in [5] (38 mg/kg, 30 min); 3100 ng/mL in series [5] (38 mg/kg, 60 min); 2200 ng/mL in [5] (38 mg/kg, 90 min); 1600 ng/mL in series [5] (38 mg/kg, 120 min); 1200 ng/mL in [5] (38 mg/kg, 150 min). Moreover, the “Blood Level” value in series [5] (50 mg/kg, 15 min) was found to be 3700 ng/mL; in [5] (50 mg/kg, 30 min), 4700 ng/mL; in series [5] (50 mg/kg, 60 min), 4700 ng/mL; in [5] (50 mg/kg, 90 min), 4100 ng/mL; in [5] (50 mg/kg, 120 min) it was 3700 ng/mL; in series [5] (50 mg/kg, 150 min), 3300 ng/mL.
In the case of `CC1(C)[C@H](C(=O)O)N2C(=O)C[C@H]2S1(=O)=O` [CP-45899], the potentiation of ampicillin entry in series [10] was “potentiates the in vitro and in vivo activities of ampicillin versus β-lactamase-producing strains”.
`NCc1ccccc1CC(=O)N[C@@H]1C(=O)N2C(C(=O)O)=C(CSc3nnnn3CC(=O)O)CS[C@H]12` [Ceforanide]: the minimum inhibitory concentration (MIC) is 125 µg/mL (≈ 241 µM) in [11] (6 strains, geometric mean); 125 µg/mL (≈ 241 µM) in series [11] (Serratia marcescens); > 125 µg/mL in series [12]; 0.5 µg/mL (≈ 0.962 µM) in [12] (1 strain, read-out: MIC); 85 µg/mL (≈ 164 µM) in [12] (9 strains, geometric mean, read-out: MIC); > 125 µg/mL in [13] (5 strains, geometric mean). Moreover, the MIC is > 125 µg/mL in [13] (Klebsiella aerogenes); 3.4 µg/mL (≈ 6.54 µM) in [13] (Klebsiella aerogenes, 4 strains, geometric mean, read-out: MIC); 0.06 µg/mL (≈ 0.115 µM) in [14] (1 strain (first line)); 16 µg/mL (≈ 30.8 µM) in series [14] (1 strain (second line)); > 125 µg/mL in series [15] (8 strains (second line)); 65 µg/mL (≈ 125 µM) in [15] (8 strains (first line), read-out: MIC). Moreover, the MIC in series [16] was > 125 µg/mL; in series [17], > 125 µg/mL; in [18] (1 strain), 0.25 µg/mL (≈ 0.481 µM); in series [18] (3 strains, geometric mean), 25.4 µg/mL (≈ 48.9 µM); in series [19] it was 125 µg/mL (≈ 241 µM); in series [20], > 125 µg/mL. The MIC in series [21] (1 strain) was 0.35 µg/mL (≈ 0.674 µM); in series [21] (4 strains, geometric mean), 45 µg/mL (≈ 86.6 µM); in series [22] (1 strain (first line)), 22.6 µg/mL (≈ 43.5 µM); in series [22] (1 strain (third line)) it was > 125 µg/mL; in series [22] (14 strains, geometric mean), > 125 µg/mL.
Regarding `CC1(C)S[C@@H]2[C@H](NC(=O)[C@H](N)c3ccccc3)C(=O)N2[C@H]1C(=O)OCOC(=O)[C@@H]1N2C(=O)C[C@H]2S(=O)(=O)C1(C)C` [ester 3], in series [23], the “absorption from the gastro-intestinal tract” value is listed as “excellently absorbed from the gastro-intestinal tract”; the “blood and tissue levels of antibiotic and β-lactamase inhibitor” value is “high blood and tissue levels of antibiotic and β-lactamase inhibitor in a balanced ratio”; the hydrolysis after absorption result is on record as “hydrolyzed with simultaneous liberation of the active components”.
As for `CC1(C)S[C@@H]2[C@H](N=CN3CCCCCC3)C(=O)N2[C@H]1C(=O)OCOC(=O)[C@@H]1N2C(=O)C[C@H]2S(=O)(=O)C1(C)C` [ester 4], in series [23], the “absorption from the gastro-intestinal tract” value is “excellently absorbed from the gastro-intestinal tract”; the “blood and tissue levels of antibiotic and β-lactamase inhibitor” value was “high blood and tissue levels of antibiotic and β-lactamase inhibitor in a balanced ratio”; the hydrolysis after absorption entry is reported as “hydrolyzed with simultaneous liberation of the active components”.
